Measured values published in ChEMBL document CHEMBL5678818, “Discovery of potent SOS1 inhibitors that block RAS activation via disruption of the RAS-SOS1 interaction” (Proc Natl Acad Sci U S A, 2019).

What was measured:
[1] = biological target: Testis-specific serine/threonine-protein kinase 3 (Homo sapiens) (UniProt Q96PN8); assay: Inhibition of TSSK3 (unknown origin) assessed as residual activity at 1000 nM by KINOMEscan analysis relative to control
[2] = tested on: Tyrosine-protein kinase ABL1 (Homo sapiens), P00519 [Q252H]; assay: Inhibition of nonphosphorylated ABL1 Q252H mutant (unknown origin) assessed as residual activity at 100 nM by KINOMEscan analysis relative to control
[3] = biological target: T1, Cyclin-dependent kinase 11A (Homo sapiens) (UniProt Q9UQ88); assay: Inhibition of CDC2L2 (unknown origin) assessed as residual activity at 100 nM by KINOMEscan analysis relative to control
T1 sequence (whole entry): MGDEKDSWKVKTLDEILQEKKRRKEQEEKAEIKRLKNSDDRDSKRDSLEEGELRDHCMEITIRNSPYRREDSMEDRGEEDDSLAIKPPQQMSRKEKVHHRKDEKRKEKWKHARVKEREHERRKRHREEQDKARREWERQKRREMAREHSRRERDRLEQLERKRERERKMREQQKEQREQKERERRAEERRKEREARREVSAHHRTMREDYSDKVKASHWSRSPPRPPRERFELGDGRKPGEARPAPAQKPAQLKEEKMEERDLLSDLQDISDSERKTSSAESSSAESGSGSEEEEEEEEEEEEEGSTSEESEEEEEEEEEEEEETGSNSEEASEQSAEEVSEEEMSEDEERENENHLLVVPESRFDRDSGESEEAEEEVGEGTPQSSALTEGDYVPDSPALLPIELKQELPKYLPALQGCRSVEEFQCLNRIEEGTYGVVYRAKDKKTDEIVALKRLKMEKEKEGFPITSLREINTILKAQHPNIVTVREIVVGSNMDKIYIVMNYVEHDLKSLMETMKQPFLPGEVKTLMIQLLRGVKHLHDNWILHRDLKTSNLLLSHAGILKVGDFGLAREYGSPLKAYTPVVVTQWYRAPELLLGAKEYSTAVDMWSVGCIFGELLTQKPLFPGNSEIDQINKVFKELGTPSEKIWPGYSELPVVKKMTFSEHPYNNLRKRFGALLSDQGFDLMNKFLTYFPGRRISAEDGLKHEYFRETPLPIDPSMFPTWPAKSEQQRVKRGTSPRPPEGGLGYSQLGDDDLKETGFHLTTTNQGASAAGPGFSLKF

[4] = tested on: Epidermal growth factor receptor (Homo sapiens), P00533 [L861Q]; assay: Inhibition of EGFR L861Q mutant (unknown origin) assessed as residual activity at 100 nM by KINOMEscan analysis relative to control
[5] = biological target: Serine/threonine-protein kinase MRCK beta (Homo sapiens) (UniProt Q9Y5S2); assay: Inhibition of MRCKB (unknown origin) assessed as residual activity at 100 nM by KINOMEscan analysis relative to control
[6] = biological target: Proto-oncogene tyrosine-protein kinase receptor Ret (Homo sapiens) (UniProt P07949); assay: Inhibition of RET (unknown origin) assessed as residual activity at 100 nM by KINOMEscan analysis relative to control
[7] = biological target: Receptor-interacting serine/threonine-protein kinase 2 (Homo sapiens) (UniProt O43353); assay: Inhibition of RIPK2 (unknown origin) assessed as residual activity at 100 nM by KINOMEscan analysis relative to control
[8] = biological target: Proto-oncogene tyrosine-protein kinase ROS (Homo sapiens) (UniProt P08922); assay: Inhibition of ROS1 (unknown origin) assessed as residual activity at 100 nM by KINOMEscan analysis relative to control
[9] = biological target: Ribosomal protein S6 kinase alpha-4 (Homo sapiens) (UniProt O75676); assay: Inhibition of N-terminal RPS6KA4 […] domain 1 (unknown origin) assessed as residual activity at 100 nM by KINOMEscan analysis relative to control
[10] = biological target: T2, Uncharacterized serine/threonine-protein kinase SBK3 (Homo sapiens) (UniProt P0C264); assay: Inhibition of SgK110 (unknown origin) assessed as residual activity at 100 nM by KINOMEscan analysis relative to control
T2 sequence (whole entry): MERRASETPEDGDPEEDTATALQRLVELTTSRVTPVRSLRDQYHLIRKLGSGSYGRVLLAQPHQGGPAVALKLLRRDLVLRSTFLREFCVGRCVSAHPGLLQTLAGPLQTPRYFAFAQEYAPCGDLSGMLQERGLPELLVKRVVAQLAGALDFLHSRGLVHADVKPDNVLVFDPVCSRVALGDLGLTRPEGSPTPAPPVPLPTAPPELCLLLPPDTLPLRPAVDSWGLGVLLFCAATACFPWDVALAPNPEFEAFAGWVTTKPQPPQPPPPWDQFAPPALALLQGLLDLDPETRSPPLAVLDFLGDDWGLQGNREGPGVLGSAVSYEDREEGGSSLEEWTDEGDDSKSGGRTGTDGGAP

[11] = biological target: T3, Serine/threonine-protein kinase tousled-like 1 (Homo sapiens) (UniProt Q9UKI8); assay: Inhibition of TLK1 (unknown origin) assessed as residual activity at 100 nM by KINOMEscan analysis relative to control
T3 sequence (whole entry): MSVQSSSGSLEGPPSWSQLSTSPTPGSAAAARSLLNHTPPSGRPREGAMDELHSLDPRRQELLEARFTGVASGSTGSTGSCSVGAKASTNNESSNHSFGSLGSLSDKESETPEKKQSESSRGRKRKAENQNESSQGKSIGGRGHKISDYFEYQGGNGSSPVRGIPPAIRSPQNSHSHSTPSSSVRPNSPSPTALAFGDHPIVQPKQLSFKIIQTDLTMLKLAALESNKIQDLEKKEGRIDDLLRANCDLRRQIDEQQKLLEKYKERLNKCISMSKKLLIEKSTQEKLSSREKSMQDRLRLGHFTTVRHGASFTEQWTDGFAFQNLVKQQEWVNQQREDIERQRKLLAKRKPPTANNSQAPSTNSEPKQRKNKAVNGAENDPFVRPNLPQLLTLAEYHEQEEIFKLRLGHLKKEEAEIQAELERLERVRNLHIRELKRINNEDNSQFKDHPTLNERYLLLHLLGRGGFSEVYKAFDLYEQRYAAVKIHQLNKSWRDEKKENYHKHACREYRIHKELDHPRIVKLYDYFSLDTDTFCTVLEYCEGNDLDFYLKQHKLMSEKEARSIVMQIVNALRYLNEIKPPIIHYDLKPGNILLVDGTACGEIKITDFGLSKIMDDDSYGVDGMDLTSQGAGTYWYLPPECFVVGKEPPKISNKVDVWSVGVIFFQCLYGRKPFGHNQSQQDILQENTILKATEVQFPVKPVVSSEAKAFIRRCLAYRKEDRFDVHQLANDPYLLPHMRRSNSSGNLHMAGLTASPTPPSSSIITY

[12] = biological target: Serine/threonine-protein kinase 32B (Homo sapiens) (UniProt Q9NY57); assay: Inhibition of YANK2 (unknown origin) assessed as residual activity at 100 nM by KINOMEscan analysis relative to control
[13] = biological target: Mitogen-activated protein kinase kinase kinase 20 (Homo sapiens) (UniProt Q9NYL2); assay: Inhibition of ZAK (unknown origin) assessed as residual activity at 100 nM by KINOMEscan analysis relative to control

Chain of Serine/threonine-protein kinase 32B (Homo sapiens) (Q9NY57 whole entry): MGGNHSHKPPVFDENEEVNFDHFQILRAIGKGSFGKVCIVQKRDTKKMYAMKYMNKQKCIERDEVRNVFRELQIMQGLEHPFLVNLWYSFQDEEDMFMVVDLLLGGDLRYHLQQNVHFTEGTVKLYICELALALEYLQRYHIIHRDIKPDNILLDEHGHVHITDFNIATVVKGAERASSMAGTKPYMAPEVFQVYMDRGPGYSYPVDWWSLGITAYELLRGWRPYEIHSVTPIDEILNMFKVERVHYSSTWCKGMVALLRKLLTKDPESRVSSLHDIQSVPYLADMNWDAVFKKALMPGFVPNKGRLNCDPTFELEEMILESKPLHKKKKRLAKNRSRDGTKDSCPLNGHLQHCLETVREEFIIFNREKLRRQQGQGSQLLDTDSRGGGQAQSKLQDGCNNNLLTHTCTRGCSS
Chain of Testis-specific serine/threonine-protein kinase 3 (Homo sapiens) (Q96PN8 whole entry): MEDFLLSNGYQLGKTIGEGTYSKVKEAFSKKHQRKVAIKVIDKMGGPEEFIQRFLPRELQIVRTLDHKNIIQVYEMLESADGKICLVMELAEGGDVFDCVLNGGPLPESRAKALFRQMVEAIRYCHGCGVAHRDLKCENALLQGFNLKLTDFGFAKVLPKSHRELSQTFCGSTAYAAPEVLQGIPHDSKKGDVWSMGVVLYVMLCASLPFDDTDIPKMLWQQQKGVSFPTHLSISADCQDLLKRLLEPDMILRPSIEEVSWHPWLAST
Chain of Proto-oncogene tyrosine-protein kinase receptor Ret (Homo sapiens) (P07949 whole entry): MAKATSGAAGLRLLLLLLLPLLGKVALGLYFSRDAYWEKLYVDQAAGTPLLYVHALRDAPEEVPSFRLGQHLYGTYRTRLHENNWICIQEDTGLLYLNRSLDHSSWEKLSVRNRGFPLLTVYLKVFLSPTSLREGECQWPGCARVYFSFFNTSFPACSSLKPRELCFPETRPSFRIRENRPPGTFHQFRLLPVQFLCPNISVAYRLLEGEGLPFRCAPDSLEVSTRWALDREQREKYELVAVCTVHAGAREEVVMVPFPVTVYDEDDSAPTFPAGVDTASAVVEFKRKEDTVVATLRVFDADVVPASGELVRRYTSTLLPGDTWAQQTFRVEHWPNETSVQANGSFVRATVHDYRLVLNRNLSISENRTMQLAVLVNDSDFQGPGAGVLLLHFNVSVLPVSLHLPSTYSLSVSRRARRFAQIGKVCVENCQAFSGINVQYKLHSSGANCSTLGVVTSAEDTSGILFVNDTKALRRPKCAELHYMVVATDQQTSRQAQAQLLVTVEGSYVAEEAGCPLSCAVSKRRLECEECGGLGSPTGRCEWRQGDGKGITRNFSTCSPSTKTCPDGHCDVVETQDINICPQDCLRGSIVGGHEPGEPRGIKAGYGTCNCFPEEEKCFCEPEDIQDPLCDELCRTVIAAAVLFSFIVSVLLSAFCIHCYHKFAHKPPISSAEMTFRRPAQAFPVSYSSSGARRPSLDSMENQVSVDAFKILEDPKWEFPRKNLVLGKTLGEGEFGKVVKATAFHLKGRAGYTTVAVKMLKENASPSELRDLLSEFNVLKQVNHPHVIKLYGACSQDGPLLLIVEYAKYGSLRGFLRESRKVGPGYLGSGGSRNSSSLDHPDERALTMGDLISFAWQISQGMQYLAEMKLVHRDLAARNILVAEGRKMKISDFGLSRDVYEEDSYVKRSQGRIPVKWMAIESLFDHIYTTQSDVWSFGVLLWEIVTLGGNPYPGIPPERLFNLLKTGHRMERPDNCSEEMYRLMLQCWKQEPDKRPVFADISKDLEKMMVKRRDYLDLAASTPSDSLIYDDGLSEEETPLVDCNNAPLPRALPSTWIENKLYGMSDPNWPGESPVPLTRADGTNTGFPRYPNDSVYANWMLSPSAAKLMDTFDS
Chain of Receptor-interacting serine/threonine-protein kinase 2 (Homo sapiens) (O43353 whole entry): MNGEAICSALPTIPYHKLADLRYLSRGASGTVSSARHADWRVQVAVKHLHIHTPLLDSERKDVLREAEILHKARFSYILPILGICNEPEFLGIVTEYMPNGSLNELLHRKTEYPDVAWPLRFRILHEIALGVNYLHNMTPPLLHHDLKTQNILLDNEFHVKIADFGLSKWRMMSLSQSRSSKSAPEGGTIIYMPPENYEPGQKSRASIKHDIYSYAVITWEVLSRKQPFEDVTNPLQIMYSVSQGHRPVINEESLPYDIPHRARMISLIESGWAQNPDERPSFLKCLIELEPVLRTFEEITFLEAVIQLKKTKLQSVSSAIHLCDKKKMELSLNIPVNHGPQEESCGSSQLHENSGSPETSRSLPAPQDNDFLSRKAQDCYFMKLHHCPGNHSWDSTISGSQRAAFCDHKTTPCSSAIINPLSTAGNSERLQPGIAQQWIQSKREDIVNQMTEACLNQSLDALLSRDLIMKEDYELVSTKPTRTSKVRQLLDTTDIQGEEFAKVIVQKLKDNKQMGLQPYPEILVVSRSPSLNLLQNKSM
Chain of Proto-oncogene tyrosine-protein kinase ROS (Homo sapiens) (P08922 whole entry): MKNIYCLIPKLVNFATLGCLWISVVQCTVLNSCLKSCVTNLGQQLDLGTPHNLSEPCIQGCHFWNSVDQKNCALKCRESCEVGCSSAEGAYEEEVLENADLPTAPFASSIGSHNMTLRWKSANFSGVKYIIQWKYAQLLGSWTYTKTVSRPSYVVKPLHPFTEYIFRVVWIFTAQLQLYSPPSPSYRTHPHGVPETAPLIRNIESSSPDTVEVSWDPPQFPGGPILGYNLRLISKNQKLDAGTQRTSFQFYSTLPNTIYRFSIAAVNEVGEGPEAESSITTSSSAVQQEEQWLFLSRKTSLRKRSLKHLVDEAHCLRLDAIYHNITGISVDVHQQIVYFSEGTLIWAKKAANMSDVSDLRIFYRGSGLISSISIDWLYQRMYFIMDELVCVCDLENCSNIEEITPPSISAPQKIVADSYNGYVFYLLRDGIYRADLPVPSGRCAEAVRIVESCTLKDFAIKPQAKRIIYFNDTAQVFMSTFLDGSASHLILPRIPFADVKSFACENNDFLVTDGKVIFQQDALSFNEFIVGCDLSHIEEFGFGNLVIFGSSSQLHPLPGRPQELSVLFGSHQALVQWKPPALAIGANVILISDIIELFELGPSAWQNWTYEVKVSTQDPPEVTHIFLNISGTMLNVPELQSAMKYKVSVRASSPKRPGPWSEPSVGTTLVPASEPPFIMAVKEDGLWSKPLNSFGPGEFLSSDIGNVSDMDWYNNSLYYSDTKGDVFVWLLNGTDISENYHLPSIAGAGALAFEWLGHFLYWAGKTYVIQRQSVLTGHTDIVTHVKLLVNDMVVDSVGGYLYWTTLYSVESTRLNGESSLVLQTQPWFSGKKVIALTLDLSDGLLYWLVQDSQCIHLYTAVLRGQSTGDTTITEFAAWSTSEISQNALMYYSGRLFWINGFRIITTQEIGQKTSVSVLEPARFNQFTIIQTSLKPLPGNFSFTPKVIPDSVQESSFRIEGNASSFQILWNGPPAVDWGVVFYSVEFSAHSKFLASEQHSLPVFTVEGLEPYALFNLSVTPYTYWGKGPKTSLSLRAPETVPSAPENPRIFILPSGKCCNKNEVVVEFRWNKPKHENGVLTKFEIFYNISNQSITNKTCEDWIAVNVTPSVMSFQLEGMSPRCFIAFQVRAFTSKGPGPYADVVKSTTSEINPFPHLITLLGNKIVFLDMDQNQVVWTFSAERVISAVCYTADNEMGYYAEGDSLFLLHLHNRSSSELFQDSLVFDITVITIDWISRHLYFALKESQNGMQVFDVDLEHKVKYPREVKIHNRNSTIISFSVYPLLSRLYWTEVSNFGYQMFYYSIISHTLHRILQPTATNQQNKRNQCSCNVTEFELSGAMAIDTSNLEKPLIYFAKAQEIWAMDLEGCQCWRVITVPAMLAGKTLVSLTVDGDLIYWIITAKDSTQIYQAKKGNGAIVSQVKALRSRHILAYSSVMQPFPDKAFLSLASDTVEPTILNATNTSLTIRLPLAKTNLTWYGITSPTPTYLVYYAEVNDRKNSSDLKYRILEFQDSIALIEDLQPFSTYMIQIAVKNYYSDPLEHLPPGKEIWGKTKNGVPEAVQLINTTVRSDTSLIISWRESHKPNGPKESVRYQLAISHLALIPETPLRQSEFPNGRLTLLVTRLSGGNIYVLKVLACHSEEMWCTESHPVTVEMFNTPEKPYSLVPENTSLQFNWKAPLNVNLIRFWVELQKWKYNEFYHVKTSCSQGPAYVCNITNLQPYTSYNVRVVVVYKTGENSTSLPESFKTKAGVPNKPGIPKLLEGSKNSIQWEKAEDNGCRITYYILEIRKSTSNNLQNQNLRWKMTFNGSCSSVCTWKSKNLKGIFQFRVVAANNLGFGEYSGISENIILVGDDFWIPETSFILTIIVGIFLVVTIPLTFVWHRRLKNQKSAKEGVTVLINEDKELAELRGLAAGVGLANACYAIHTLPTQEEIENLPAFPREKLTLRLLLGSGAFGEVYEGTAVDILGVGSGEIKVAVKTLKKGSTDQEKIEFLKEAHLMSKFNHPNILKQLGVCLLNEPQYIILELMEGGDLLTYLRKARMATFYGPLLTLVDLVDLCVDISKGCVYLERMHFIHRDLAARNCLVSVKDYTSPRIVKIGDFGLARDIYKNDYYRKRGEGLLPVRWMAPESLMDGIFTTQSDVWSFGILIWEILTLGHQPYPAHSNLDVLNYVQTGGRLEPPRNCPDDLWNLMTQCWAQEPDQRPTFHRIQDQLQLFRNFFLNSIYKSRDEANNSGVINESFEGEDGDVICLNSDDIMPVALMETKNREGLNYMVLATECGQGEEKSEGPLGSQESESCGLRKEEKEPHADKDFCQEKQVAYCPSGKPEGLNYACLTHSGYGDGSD

Compound | Activity [1] | Activity [2] | Activity [3] | Activity [4] | Activity [5] | Activity [6] | Activity [7] | Activity [8] | Activity [9] | Activity [10] | Activity [11] | Activity [12] | Activity [13]
COc1cc2nc(C)nc(N[C@H](C)c3cccc(-c4cn[nH]c4)c3)c2cc1OC | 77% |  |  |  |  |  |  |  |  |  |  |  | 
COc1cc2ncnc(N[C@H](C)c3cccc4ccccc34)c2cc1OC |  | 100% | 82% | 95% | 82% | 86% | 84% | 100% | 100% | 100% | 79% | 84% | 51%
